# In patent US11649218B2, “C-Abl tyrosine kinase inhibitory compound embodiments and methods of making and using the same” (The USA, as represented by the Secretary, Dept. of Health …, priority 2018, dated 2023):
# Tested on: Leukemia K562 cell
# Experiment: Leukemia K562 cell proliferation/viability assay (CellTiterGlo, 48 hours)
# Format: cell-based
# Parameters: unit not given here
# Conditions: K562 cells
# Experimental: C-Abl is encoded by the ABL1 gene (NCBI Gene ID NO. 25). […] Assays for determining if a small molecule inhibits c-Abl activity are known. Non-limiting examples include cell proliferation assays using cancer cells that are BCR-Abl positive and depend on BCR-Abl for growth, such as the leukemia cell line K562. […] In some embodiments described herein, compounds are tested for ability to reduce K562 cell proliferation in an HTS adapted assay which measures cell viability using the reagent CellTiterGlo after 48 hours treatment.
row,SMILES,Efficacy
1,CN1C(=O)c2ccc(-c3cccc(N(C)S(C)(=O)=O)c3)cc2Oc2ccc(OC(F)(F)F)cc21 [NCGC00384267],−48.4
2,"CN1CCN(c2cc(-c3ccc4c(c3)C(=O)Nc3cc(OC(F)(F)F)ccc3O4)ccn2)CC1 [NCGC00373063, 2-(2-(4-Methylpiperazin-1-yl)pyridin-4-yl)-8-(trifluoromethoxy)dibenzo[b,f][1,4]oxazepin-11(10H)-one]",−107.9
3,"O=C1Nc2cc(OC(F)(F)F)ccc2[S+]([O-])c2ccc(-c3ccnc(N4CCOCC4)c3)cc21 (centres unmarked) [NCGC00482446, 2-(2-Morpholinopyridin-4-yl)-8-(trifluoromethoxy)dibenzo[b,f][1,4]thiazepin-11(10H)-one 5-oxide]",−83.3
4,"N#Cc1ccc2c(c1)NC(=O)c1cc(-c3ccnc(N4CCOCC4)c3)ccc1O2 [NCGC00481503, 2-(2-Morpholinopyridin-4-yl)-11-oxo-10,11-dihydrodibenzo[b,f][1,4]oxazepine-8-carbonitrile]",−80.5
5,"CN(C)CCn1cc(-c2ccc3c(c2)C(=O)Nc2cc(OC(F)(F)F)ccc2O3)cn1 [NCGC00387297, 2-(1-(2-(Dimethylamino)ethyl)-1H-pyrazol-4-yl)-8-(trifluoromethoxy)dibenzo[b,f][1,4]oxazepin-11(10H)-one]",−115.7
6,"O=C1Nc2cc(OC(F)(F)F)ccc2Oc2ccc(-c3cccc(B(O)O)c3)cc21 [NCGC00415019, (3-(11-Oxo-8-(trifluoromethoxy)-10,11-dihydrodibenzo[b,j][1,4]oxazepin-2-v)phenyl)boronic acid]",−79.0
7,"CN(C)S(=O)(=O)c1cccc(-c2ccc3c(c2)C(=O)Nc2cc(OC(F)(F)F)ccc2O3)c1 [NCGC00373057, N,N-Dimethyl-3-(11-oxo-8-(trifluoromethoxy)-10. I1-dihydrodibenzo[b,f][1,4]oxazepin-2-yl)benzenesulfonamide]",−85.1
8,"O=C1Nc2cc(OC(F)(F)F)ccc2Sc2ccc(-c3ccnc(N4CCOCC4)c3)cc21 [NCGC00482456, 2-(2-Morpholinopyridin-4-yl)-8-(trifluoromethoxy)dibenzo[b,f][1,4]thiazepin-11(10H)-one]",−85.7
9,"O=C(NCCO)c1cccc(-c2ccc3c(c2)C(=O)Nc2cc(OC(F)(F)F)ccc2O3)c1 [NCGC00356688, N-(2-Hydroxyethyl)-3-(11-oxo-8-(trifluoromethoxy)-10H-dihydrodibenzo[b,f][1,4]oxazepin-2-yl)benzamide]",−89.8
10,"O=C1Nc2cc(OC(F)(F)F)ccc2Oc2ccc(CCCB(O)O)cc21 [NCGC00390142, (3-(11-Oxo-8-(trifluoromethoxy)-10,11-dihydrodibenzo[b,f][1,4]oxazepin-2-yl)propyl)boronic acid]",−103.4
11,"O=C1Nc2cc(OCCC(F)(F)F)ccc2Oc2ccc(-c3ccnc(N4CCOCC4)c3)cc21 [NCGC00481507, 2-(2-Morpholinopyridin-4-yl)-8-(3,3,3-trifluoropropoxy)dibenzo[b,f][1,4]oxazepin-11(10H)-one]",−85.5
12,"O=C1Nc2cc(OC(F)(F)F)ccc2Oc2ccc(-c3cnc4ccnn4c3)cc21 [NCGC00409812, 2-(pyrazolo[1,5-a]pyrimidin-6-yl)-8-(trifluoromethoxy)dibenzo[b,f][1,4]oxazepin-11(10H)-one]",−69.0
13,"O=C(NCCN1CCOCC1)c1cccc(-c2ccc3c(c2)C(=O)Nc2cc(OC(F)(F)F)ccc2N3)c1 [NCGC00355557, N-(2-Morpholinoethyl)-3-(11-oxo-8-(trifluoromethoxy)-10,11-dihydro-5H-dibenzo[b,e][1,4]diazepin-2-yl)benzamide]",−91.1
14,"NC(=O)c1cccc(-c2ccc3c(c2)C(=O)Nc2cc(OC(F)(F)F)ccc2O3)c1 [NCGC00356842, 3-(11-Oxo-8-(trifluoromethoxy)-10,11-dihydrodibenzo[b,f][1,4]oxazepin-2-yl)benzamide]",−67.0
15,"CC(C)(O)Cn1cc(-c2ccc3c(c2)C(=O)Nc2cc(OC(F)(F)F)ccc2O3)cn1 [NCGC00387294, 2-(1-(2-Hydroxy-2-methylpropyl)-1H-pyrazol-4-yl)-8-(trifluoromethoxy)dibenzo[b,f][1,4]oxazepin-11(10H)-one]",−82.3
16,"O=C1Nc2cc(OC(F)(F)F)ccc2Oc2ccc(-c3cccc(-c4ccn[nH]4)c3)cc21 [NCGC00411874, 2-(3-(1H-Pyrazol-5-yl)phenyl)-8-(trifluoromethoxy)dibenzo[b,f][1,4]oxazepin-11(10H)-one]",−84.3
17,"CS(=O)(=O)Nc1ccc(-c2ccc3c(c2)C(=O)Nc2cc(OC(F)(F)F)ccc2N3)cc1 [NCGC00355552, N-(4-(11-oxo-8-(trifluoromethoxy)-10,11-dihydro-5H-dibenzo[b,e][1,4]diazepin-2-yl)phenyl)methanesulfonamide]",−86.3
18,"N#CCn1cc(-c2ccc3c(c2)C(=O)Nc2cc(OC(F)(F)F)ccc2O3)cn1 [NCGC00388626, 2-(4-(11-Oxo-8-(trifluoromethoxy)-10,11-dihydrodibenzo[b,f][1,4]oxazepin-2-yl)-1H-pyrazol-1-yl)acetonitrile]",−34.8
19,"O=C1Nc2cc(OC(F)(F)F)ccc2Oc2ccc(-c3ccc(CN4CCOCC4)s3)cc21 [NCGC00388536, 2-(5-(Morpholinomethyl)thiophen-2-yl)-8-(trifluoromethoxy)dibenzo[b,f][1,4]oxazepin-11(10H)-one]",−83.1
20,"CC(C)(CO)n1cc(-c2ccc3c(c2)C(=O)Nc2cc(OC(F)(F)F)ccc2O3)cn1 [NCGC00387295, 2-(1-(Hydroxy-2-methylpropan-2-yl)-1H-pyrazol-4-yl)-8-(trifluoromethoxy)dibenzo[b,f][1,4]oxazepin-11(10H)-one]",−87.7
21,"O=C1Nc2cc(OC(F)(F)F)ccc2Nc2ccc(-c3cccc(C(=O)N4CCOCC4)c3)cc21 [NCGC00355558, 2-(3-(Morpholine-4-carbonyl)phenyl)-8-(trifluoromethoxy)-5,10-dihydro-11H-dibenzo[b,e][1,4]diazepin-11-one]",−89.5
22,"O=C1Nc2cc(OC(F)(F)F)ccc2Oc2ccc(CCB(O)O)cc21 [NCGC00390141, (2-(11-Oxo-8-(trifluoromethoxy)-10,11-dihydrodibenzo[b,f][1,4]oxazepin-2-yl)ethyl)boronic acid]",−45.8
23,"O=C1Nc2cc(OC(F)(F)F)ccc2Oc2ccc(-c3cccc(CO)c3)cc21 [NCGC00415061, 2-(3-(Hydroxymethyl)phenyl)-8-(trifluoromethoxy)dibenzo[b,f][1,4]oxazepin-11(10H)-one]",−71.4
24,"Nc1cc(-c2ccc3c(c2)C(=O)Nc2cc(OC(F)(F)F)ccc2O3)ccn1 [NCGC00373061, 2-(2-Aminopyridin-4-yl)-8-(trifluoromethoxy)dibenzo[b,f][1,4]oxazepin-11(10H)-one]",−87.0
25,"CS(=O)(=O)Nc1ccc(-c2ccc3c(c2)C(=O)Nc2cc(OC(F)(F)F)ccc2O3)cc1 [NCGC00356666, N-(4-(11-Oxo-8-(trifluoromethoxy)-10,11-dihydrodibenzo[b,f][1,4]oxazepin-2-yl)phenyl)methanesulfonamide]",−79.9
26,"O=C1Nc2cc(OCC(F)(F)F)ccc2Oc2ccc(-c3ccnc(N4CCOCC4)c3)cc21 [NCGC00481504, 2-(2-Morpholinopyridin-4-yl)-8-(2,2,2-trifluoroethoxy)dibenzo[b,f][1,4]oxazepin-11(10H)-one]",−85.1
